Five molecules from US20110015226A1, “Treatment of Energy Utilization Disease” (SUMMIT CORPORATION PLC, priority 2008, published 2011) can be followed below.

Molecules are shown by their SMILES. Like-named read-outs stand apart in the source and are kept apart here.

Format in all cases: biochemical
In assay [1] the target is α-D-glucosidase (Bacillus) (Geobacillus stearothermophilus, UniProt A0ACH1E9U3). The experiment in a line: Glycosidase inhibition: α-D-glucosidase (Bacillus). Conditions: compounds tested at 0.8 mM. An excerpt: (§1) The results tabulated below were obtained using commercially available glycosidases and p-nitrophenyl-substrates using standard methods described for example by Watson et al (1997) Phytochemistry 46 255-259. All enzymes and substrates were bought from Sigma. Enzyme and substrate solutions were made using sodium phosphate buffers at the pH optima values. The enzymes used were α-D-glucosidase Saccharomyces cerevisiae, Bacillus stearothermophilus, Oryzae sativa), β-D-glucosidase (Almond), α-D-mannosidase (Jack bean), α-D-galactosidase (Green coffee beans), β-D-galactosidase (Bovine liver), α-L-fucosidase (Bovine kidney), N-acetyl-β-D-glucosaminidase (Bovine kidney, Jack bean, Aspergillus oryzae), Naringinase (Penicillium decumbens) and amyloglucosidase (Aspergillus niger). All enzymes were used with the appropriate p-nitrophenyl substrates (5 mM). Amyloglucosidase activity was measured using amylopectin (0.1%) (Merck) mixed with sodium phosphate buffer, pH 4.5 in a glass bottle, and healed in a boiling water bath for 20 minutes to dissolve with released glucose measured using ‘Trinder’ glucose detection solution (Sigma).
(§2) All enzymes and para-nitrophenyl substrates were purchased from Sigma, with the exception of beta-mannosidase which came from Megazyme. Enzymes were assayed at 27° C. in 0.1M citric acid/0.2M disodium hydrogen phosphate buffers at the optimum pH for the enzyme. The incubation mixture consisted of 10 μl enzyme solution, 10 μl of 1 mg/ml aqueous solution of extract and 50 μl of the appropriate 5 mM para-nitrophenyl substrate made up in buffer at the optimum pH for the enzyme. The reactions were stopped by addition of 70 μl 0.4M glycine (pH 10.4) during the exponential phase of the reaction, which had been determined at the beginning using uninhibited assays in which water replaced inhibitor. Final absorbances were read at 405 nm using a Versamax microplate reader (Molecular Devices). Assays were carried out in triplicate, and the values given are means of the three replicates per assay. (See Watson, A. A., Nash, R. J., Wormald, M. R., Harvey, D. J., Dealler, S., Lees, E., Asano, N., Kizu, H., Kato, A., Griffiths, R. C., Cairns, A. J. and Fleet, G. W. J. (1997). Glycosidase-inhibiting pyrrolidine alkaloids from Hyacinthoides non-scripta. Phytochemistry 46 (2): 255-259.)

For the next assay, the target named is T1, α-D-glucosidase (Yeast) (Saccharomyces cerevisiae, UniProt P53341).
T1 construct: purchased Sigma
T1 sequence (P53341 whole entry): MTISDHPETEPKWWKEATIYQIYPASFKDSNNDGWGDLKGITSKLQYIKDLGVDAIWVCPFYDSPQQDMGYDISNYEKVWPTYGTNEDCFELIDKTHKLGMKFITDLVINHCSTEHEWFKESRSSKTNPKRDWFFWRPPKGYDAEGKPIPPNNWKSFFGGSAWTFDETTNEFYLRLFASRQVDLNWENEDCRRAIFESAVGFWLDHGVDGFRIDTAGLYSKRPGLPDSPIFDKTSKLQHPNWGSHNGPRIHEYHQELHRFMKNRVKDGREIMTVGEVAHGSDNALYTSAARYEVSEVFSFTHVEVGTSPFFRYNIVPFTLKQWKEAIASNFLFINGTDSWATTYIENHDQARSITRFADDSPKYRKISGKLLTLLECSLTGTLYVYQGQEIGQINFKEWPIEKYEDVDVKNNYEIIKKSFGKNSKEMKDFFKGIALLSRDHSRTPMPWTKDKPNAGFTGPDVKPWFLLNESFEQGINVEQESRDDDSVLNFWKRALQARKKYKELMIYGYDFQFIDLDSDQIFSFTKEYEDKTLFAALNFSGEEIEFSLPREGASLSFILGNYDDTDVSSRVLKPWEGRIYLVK
The experiment in a line: Glycosidase inhibition: α-D-glucosidase (Yeast). Conditions: compounds tested at 0.8 mM.
Description: as §1, §2

Assay [2] has as its target T2, α-L-fucosidase Bovine kidney (Bos taurus, UniProt Q2KIM0).
T2 construct: α-L-fucosidase (Bovine kidney); purchased Sigma; host or cells: bovine kidney
T2 sequence (Q2KIM0 23-468): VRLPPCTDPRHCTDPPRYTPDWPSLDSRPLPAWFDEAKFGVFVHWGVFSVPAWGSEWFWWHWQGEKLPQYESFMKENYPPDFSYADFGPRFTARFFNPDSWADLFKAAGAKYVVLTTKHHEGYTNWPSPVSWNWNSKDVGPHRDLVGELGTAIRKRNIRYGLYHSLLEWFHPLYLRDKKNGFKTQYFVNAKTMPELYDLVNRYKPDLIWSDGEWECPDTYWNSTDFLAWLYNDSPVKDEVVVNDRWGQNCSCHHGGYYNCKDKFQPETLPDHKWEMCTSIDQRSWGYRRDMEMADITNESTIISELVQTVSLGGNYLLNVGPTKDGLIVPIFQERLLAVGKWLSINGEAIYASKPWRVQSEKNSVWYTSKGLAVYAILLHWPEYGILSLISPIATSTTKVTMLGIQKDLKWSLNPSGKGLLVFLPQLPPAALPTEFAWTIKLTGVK
The experiment in a line: Glycosidase inhibition: α-L-fucosidase Bovine kidney. Conditions: compounds tested at 0.8 mM.

Assay [3] deals with T3, rabbit intestinal sucrase (Oryctolagus cuniculus, UniProt P07768).
T3 construct: The small intestine was dissected out of a female wild rabbit; from tissue; host or cells: small-intestinal mucosa of a female wild rabbit
T3 sequence (P07768 whole entry): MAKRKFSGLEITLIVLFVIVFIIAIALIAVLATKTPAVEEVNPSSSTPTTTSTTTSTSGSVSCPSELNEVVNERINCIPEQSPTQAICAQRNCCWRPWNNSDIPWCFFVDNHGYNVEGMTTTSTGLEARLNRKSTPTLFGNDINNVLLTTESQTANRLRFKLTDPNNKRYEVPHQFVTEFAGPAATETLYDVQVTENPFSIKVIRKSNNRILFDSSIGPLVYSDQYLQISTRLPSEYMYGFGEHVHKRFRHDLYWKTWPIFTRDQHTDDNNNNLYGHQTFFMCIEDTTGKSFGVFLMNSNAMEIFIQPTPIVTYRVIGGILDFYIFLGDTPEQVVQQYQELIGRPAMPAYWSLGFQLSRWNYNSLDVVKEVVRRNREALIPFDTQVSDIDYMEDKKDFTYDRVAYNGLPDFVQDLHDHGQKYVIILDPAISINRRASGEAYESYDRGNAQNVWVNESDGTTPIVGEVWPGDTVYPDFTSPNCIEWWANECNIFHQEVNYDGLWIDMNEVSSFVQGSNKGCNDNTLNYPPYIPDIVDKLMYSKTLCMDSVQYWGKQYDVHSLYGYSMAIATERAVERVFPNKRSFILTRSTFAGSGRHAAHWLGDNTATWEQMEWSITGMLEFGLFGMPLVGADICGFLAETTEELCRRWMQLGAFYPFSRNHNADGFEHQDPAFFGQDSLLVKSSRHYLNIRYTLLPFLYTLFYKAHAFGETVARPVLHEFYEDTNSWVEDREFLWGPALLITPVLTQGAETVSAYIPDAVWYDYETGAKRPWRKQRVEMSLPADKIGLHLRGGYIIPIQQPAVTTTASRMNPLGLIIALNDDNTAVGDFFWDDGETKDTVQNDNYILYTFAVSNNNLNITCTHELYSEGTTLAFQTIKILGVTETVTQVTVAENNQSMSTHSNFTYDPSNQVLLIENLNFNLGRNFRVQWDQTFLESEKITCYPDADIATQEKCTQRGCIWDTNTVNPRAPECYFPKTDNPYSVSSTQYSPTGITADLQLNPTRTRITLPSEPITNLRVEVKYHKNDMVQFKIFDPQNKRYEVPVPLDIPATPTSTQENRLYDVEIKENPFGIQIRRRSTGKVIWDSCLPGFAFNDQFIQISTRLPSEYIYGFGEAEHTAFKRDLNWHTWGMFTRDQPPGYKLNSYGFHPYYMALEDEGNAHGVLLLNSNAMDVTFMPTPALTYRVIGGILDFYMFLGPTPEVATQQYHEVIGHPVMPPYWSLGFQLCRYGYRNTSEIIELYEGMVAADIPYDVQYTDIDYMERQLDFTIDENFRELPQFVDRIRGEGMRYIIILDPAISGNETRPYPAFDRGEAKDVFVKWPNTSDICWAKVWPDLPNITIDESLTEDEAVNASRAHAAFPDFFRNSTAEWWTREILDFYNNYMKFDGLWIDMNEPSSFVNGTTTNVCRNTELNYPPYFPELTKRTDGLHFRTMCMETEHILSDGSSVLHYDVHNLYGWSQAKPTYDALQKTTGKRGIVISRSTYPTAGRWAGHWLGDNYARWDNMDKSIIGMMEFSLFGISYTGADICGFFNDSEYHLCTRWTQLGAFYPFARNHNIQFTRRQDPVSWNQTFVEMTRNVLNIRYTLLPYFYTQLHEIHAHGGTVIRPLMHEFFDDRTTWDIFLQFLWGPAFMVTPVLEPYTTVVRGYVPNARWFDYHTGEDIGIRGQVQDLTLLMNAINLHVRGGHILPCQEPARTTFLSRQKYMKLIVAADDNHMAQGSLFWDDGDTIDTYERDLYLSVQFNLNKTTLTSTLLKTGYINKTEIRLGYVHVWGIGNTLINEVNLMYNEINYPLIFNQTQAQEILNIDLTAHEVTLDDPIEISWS
The experiment in a line: Rabbit disaccharidase inhibition assay: sucrase. Conditions: NI: no inhibition at 0.8 mM. The protocol:
(§3) Sucrose (8.3 mM), maltose (5 mM) and isomaltose (6.3 mM) substrates were made using 0.2 M Macllvaine (citrate-phosphate) buffer, pH 6.0. The glucose detection reagent was prepared according to the supplier's instructions (Megazyme Ltd). Linearity of the timecourse of the reaction between the glucose detection reagent and glucose was tested using a series of glucose dilutions.
(§4) The method for preparation of mammalian small intestine mucosal disaccharidases was based on Griffiths (1998), omitting ammonium sulphate fractionation steps. The small intestine was dissected out of a female wild rabbit, and opened longitudinally using a scalpel. The mucosal layer was scraped off using the edge of a clean microscope slide, and placed into 3 ml of dH2O. The mucosal layer suspension was centrifuged at around 1000 rpm for 30 seconds to sediment tissue debris. The supernatant ([…]) was removed, and centrifuged again at 3500 rcf for 1 minute to remove fine particulates from suspension. The supernatant was diluted to give 0.2-0.25 mg/ml protein and stored at −30° C.
(§5) Enzyme assays were carried out using 5-15 μl of enzyme preparation, 5 μl of test compound (or dH2O for controls) and 15-25 μl of substrate solution. Reactions were covered using a sheet of plate sealing film, and incubated at 37° C. for 60 minutes. Glucose (from disaccharide hydrolysis) was quantified by adding 200 μl of glucose detection reagent and incubating the reactions for a further twenty-five minutes. Absorbance was measured at 510 nm against control blanks.

The next assay deals with T4, α-D-glucosidase (Rice) (Oryza sativa subsp. japonica, UniProt Q653V7).
T4 construct: purchased Sigma
T4 sequence (Q653V7 34-885): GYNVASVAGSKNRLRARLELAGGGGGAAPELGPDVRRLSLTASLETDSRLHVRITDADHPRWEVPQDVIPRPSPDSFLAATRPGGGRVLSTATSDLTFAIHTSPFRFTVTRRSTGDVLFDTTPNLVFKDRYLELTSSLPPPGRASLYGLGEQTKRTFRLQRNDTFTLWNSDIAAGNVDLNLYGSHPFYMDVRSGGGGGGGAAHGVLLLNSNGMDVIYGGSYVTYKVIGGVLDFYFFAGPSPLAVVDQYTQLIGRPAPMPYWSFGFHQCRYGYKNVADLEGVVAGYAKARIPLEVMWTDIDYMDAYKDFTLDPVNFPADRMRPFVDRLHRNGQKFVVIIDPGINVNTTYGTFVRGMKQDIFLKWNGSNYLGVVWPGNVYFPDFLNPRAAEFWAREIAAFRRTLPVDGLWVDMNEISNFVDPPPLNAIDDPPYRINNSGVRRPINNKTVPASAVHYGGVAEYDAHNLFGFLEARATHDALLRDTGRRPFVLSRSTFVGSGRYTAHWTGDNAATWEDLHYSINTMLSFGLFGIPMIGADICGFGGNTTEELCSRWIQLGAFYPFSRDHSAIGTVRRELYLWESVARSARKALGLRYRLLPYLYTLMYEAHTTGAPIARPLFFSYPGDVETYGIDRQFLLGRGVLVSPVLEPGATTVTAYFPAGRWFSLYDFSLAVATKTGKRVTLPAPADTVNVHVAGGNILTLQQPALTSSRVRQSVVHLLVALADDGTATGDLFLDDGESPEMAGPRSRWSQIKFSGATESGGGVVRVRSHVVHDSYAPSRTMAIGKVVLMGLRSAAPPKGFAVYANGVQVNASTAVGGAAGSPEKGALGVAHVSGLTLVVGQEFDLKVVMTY
The experiment in a line: Glycosidase inhibition: α-D-glucosidase (Rice). To be noted: for inhibition at 800 µM: compounds tested at 0.8 mM.

In assay [4] the target is T5, α-D-galactosidase Green coffee bean (Coffea arabica, UniProt Q42656).
T5 construct: α-D-galactosidase (Green coffee beans); purchased Sigma; host or cells: green coffee beans
T5 sequence (Q42656 16-378): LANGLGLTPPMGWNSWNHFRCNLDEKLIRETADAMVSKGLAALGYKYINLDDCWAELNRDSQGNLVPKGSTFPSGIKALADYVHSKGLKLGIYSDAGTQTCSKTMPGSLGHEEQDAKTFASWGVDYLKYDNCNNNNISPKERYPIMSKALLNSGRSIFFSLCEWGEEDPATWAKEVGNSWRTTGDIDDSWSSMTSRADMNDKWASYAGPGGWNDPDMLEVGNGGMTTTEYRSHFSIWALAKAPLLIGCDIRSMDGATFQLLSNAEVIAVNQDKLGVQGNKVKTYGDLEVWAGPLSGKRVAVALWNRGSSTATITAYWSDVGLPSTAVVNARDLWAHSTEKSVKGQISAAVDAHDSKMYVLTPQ
The experiment in a line: Glycosidase inhibition: α-D-galactosidase Green coffee bean. Conditions: compounds tested at 0.8 mM.
Description: as §1, §2

Assay [5] has as its target T6, rabbit intestinal isomaltase (Oryctolagus cuniculus, UniProt P07768).
T6 construct: The small intestine was dissected out of a female wild rabbit; from tissue; host or cells: small-intestinal mucosa of a female wild rabbit
The experiment in a line: Rabbit disaccharidase inhibition assay: isomaltase. Conditions: NI: no inhibition at 0.8 mM. The protocol:
as §3, §4, §5

The target in assay [6] is T7, Amyloglucosidase Aspergillus niger (Aspergillus niger, UniProt P69328).
T7 construct: purchased Sigma
T7 sequence (P69328 25-640): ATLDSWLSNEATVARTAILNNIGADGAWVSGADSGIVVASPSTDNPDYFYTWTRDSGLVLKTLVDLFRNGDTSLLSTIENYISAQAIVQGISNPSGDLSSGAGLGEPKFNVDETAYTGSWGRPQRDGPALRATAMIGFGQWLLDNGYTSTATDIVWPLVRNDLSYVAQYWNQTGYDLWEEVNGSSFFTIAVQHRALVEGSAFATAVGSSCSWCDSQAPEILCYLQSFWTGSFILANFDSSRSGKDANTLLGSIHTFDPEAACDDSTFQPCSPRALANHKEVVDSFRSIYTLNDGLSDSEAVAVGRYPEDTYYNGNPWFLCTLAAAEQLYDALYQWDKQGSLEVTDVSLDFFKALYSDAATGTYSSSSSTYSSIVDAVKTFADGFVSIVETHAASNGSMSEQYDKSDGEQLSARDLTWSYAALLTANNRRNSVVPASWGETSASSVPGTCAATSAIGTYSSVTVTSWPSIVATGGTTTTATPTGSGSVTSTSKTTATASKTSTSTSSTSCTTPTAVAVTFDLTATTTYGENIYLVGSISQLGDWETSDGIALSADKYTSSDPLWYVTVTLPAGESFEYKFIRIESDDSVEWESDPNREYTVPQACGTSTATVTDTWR
The experiment in a line: Glycosidase inhibition: Amyloglucosidase Aspergillus niger. To be noted: compounds tested at 0.8 mM.
Description: as §1, §2

Assay [7] addresses T8, N-acetyl-β-D-glucosaminidase (A. oryzae) (Aspergillus oryzae, UniProt Q8J2T0).
T8 construct: purchased Sigma
The experiment in a line: Glycosidase inhibition: N-acetyl-β-D-glucosaminidase (A. oryzae). To be noted: compounds tested at 0.8 mM.
Description: as §1, §2

T8 sequence (Q8J2T0 97-600): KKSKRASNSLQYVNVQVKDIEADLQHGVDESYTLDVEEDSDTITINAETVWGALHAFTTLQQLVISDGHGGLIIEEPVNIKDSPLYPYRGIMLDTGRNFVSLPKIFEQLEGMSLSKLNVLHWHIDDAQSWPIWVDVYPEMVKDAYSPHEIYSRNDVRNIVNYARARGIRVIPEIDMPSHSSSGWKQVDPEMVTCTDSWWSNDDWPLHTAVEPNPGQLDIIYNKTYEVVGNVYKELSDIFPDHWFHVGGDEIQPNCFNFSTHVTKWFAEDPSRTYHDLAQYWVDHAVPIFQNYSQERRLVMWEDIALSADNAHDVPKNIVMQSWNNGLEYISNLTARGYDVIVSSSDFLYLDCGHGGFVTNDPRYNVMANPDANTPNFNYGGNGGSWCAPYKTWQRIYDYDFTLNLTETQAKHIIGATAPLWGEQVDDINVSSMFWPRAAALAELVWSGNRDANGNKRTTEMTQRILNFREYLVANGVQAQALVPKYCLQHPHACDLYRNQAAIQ
T6 sequence (P07768 whole entry): as the sequence (P07768 whole entry) above

A word on the inhibition: it is how much of the control response was suppressed. The low end stands for a response near the control, the high end for a response far below the control. Broadly, the IC50 is the concentration that inhibits the measured activity by half. `O=C(O)[C@H]1NC[C@H](O)[C@@H](O)[C@@H]1O` [Compound G2, 2S,3R,4R,5S-trihydroxypiperidine-2-carboxylic acid]: the inhibition at 800 µM in assay [1] is 49%; on α-D-glucosidase (Yeast) it was less than 10%; in [2] it was less than 10%; on α-D-glucosidase (Rice) it was 55%; in assay [4] it was less than 10%; in assay [6] it was less than 10%. In [7], this molecule yielded an inhibition at 800 µM of less than 10%. Further, the IC50 in assay [3] and in [5] was more than 800 µM each time.

As for `O=C(O)CN1[C@H](CO)[C@@H](O)[C@H](O)[C@H]1CO` [Compound S2, 2-((2R,3R,4R,5R)-3,4-Dihydroxy-2,5-bis(hydroxymethyl)pyrrolidin-1-yl)acetic acid], the inhibition at 800 µM is 92.7% in assay [1]; less than 50% against α-D-glucosidase (Yeast); less than 50% in assay [2]; less than 50% on α-D-glucosidase (Rice); less than 50% in [4]; less than 50% in assay [6]. For the same molecule, the inhibition at 800 µM in assay [7] is less than 50%. In assay [3], this molecule yielded an IC50 of more than 800 µM.

Consider `O=C(O)CCN1C[C@H](O)[C@@H](O)[C@H](O)[C@H]1CO` [Compound T1], for which the inhibition at 800 µM is less than 50% in assay [1]; less than 50% against α-D-glucosidase (Yeast); less than 50% in assay [2]; 99.1% against α-D-glucosidase (Rice); less than 50% in assay [4]; 53% in [6]. In assay [7], this molecule came in with an inhibition at 800 µM of less than 50%. Further, the IC50 was 6.1 µM in [3] and 2.4 µM on α-D-glucosidase (Rice) (read-out: IC50, α-D-glucosidase (Rice)). Further, the “sucrase IC50 (uM)” value in assay [3] is “very weak inhibition”.

For the molecule `CCCCOC(=O)[C@@H]1[C@@H](O)[C@H](O)[C@@H](O)CN1CCCC` [Compound T2, (2S,3R,4R,5S)-Butyl 1-butyl-3,4,5-trihydroxypiperidine-2-carboxylate], the inhibition at 800 µM (in assay [1]; against α-D-glucosidase (Yeast); in assay [2]; on α-D-glucosidase (Rice); in assay [4]; in assay [6]) was less than 50% each time. Further, in assay [7], the inhibition at 800 µM is less than 50%. The IC50 in assay [3] and in assay [5] was more than 800 µM in each case.

As for `OC[C@H]1NC[C@H](O)[C@@H](O)[C@@H]1O` [DNJ, 1-deoxynojirimycin, reference compound], the inhibition at 800 µM in assay [1] is 100%; at α-D-glucosidase (Yeast) it was 36%; in assay [2], less than 10%; in [4], less than 10%; in [6], 32%; in assay [7] it was less than 10%. For the same molecule, the figures for the IC50 (in assay [3]; against α-D-glucosidase (Rice); in [5]) were 0.09 µM, 0.9 µM and 0.02 µM, respectively.
